Assay results reported in patent publication US6664249B1, “Bicyclic vasopressin agonists” (Ferring BV, priority 1999, dated 2003).

Test system: Brattleboro rat
Assay: urine output in Brattleboro rats (model of vasopressin deficiency)
Type: in vivo
Conditions: 1 mg/kg p.o. in methylcellulose, vs control animals
Method: The Brattleboro rat is a recognised model for vasopressin deficiency (for a review see F D Grant, “Genetic models of vasopressin deficiency”, Exp. Physiol. 85, 203S-209S, 2000). […] Compounds of the invention were administered to Brattleboro rats (0.1-10 mg/kg p.o. in methylcellulose. Urine was collected hourly and volumes were compared with control animals. Animals had free access to food and water throughout the experiment. Representative results are given in the Table. Results for Desmopressin are given for comparison.

First: Cc1cc(C(=O)N2CCCCc3ccccc32)ccc1CNC(=O)NCC(=O)N1CCCCC1 [Example 25, 1-(3-methyl-4-[N-(2-(1-piperidino)-2-oxoethylcarbamoyl)aminomethyl]benzoyl)-2,3,4,5-tetrahydro-1H-1-benzazepine]
Second: Cc1cc(C(=O)N2CCCCc3ccccc32)ccc1CNC(=O)NCC(=O)O [Example 6, 1-(4-[N-(Carboxymethylcarbamoyl)aminomethyl]-3-methylbenzoyl)-2,3,4,5-tetrahydro-1H-1-benzazepine]
The “% inhibition of urine output (at 1 hour)” value of the first is higher: 58% for the first, 38% for the second.

`CCOC(=O)CNC(=O)NCc1ccc(C(=O)N2CCCCc3ccccc32)cc1C` [Example 5, 1-(4-[N-(2-Ethoxy-2-oxoethylcarbamoyl)aminomethyl]-3-methylbenzoyl)-2,3,4,5-tetrahydro-1H-1-benzazepine] was tested, and the “% inhibition of urine output (at 1 hour)” value was 74%.

In the case of `Cc1cc(C(=O)N2CCCCc3ccccc32)ccc1CNC(=O)NCC(=O)N(C)C` [Example 8, 1-(4-[N-(2-Dimethylamino-2-oxoethylcarbamoyl)aminomethyl]-3-methylbenzoyl)-2,3,4,5-tetrahydro-1H-1-benzazepine], the “% inhibition of urine output (at 1 hour)” value is reported as 45-82%.
